Measured values reported in patent US9434725B2, “5-azaindazole compounds and methods of use” (priority 2012, dated 2016).

Tests used:
Format in all cases: biochemical
PIM2 = PIM2 (Homo sapiens (Human), UniProt Q9P1W9); experiment: Pim kinase binding activity, Caliper LC3000 microfluidic peptide phosphorylation assay, PIM2; details: 10 μM ATP, 90 min, room temperature; read-out: PIM2 LC3K (KI)
Method: (§1) A fluorescent-labeled Pim-specific peptide substrate, was custom synthesized by American Peptide Company (Sunnyvale, Calif.). Reaction Buffer contained 10 mM HEPES, pH 7.2, 10 mM MgCl2, 0.01% Tween 20, 2 mM DTT. Termination Buffer contained 190 mM HEPES, pH 7.2, 0.015% Brij-35, 0.2% Coating Reagent 3 (Caliper Life Sciences, Hopkinton, Mass.), 20 mM EDTA. Separation Buffer contained 100 mM HEPES, pH 7.2, 0.015% Brij-35, 0.1% Coating Reagent 3, 1:200 Coating Reagent 8 (Caliper Life Sciences, Hopkinton, Mass.), 10 mM EDTA and 5% DMSO.
(§2) PIM reactions were carried out in a final volume of 10 μL per well in a 384-well plate. […] After 90 minutes of incubation at room temperature, the phosphorylation reaction was stopped by the addition of 10 μL Termination Buffer. The product and substrate in each independent reaction were separated on a 12-sipper microfluidic chip (Caliper Life Sciences, Hopkinton, Mass.) run on a Caliper LC3000® (Caliper Life Sciences, Hopkinton, Mass.). The separation of product and substrate was optimized by choosing voltages and pressure using Caliper's Optimizer software (Hopkinton, Mass.). […] Substrate conversion was calculated from the electropherogram using HTS Well Analyzer software (Caliper Life Sciences, Hopkinton, Mass.). Ki values for the test compound were calculated.

PIM3 = PIM3 (Homo sapiens (Human), UniProt Q86V86); experiment: Pim kinase binding activity, Caliper LC3000 microfluidic peptide phosphorylation assay, PIM3; details: 10 μM ATP, 90 min, room temperature; read-out: PIM3 LC3K (KI)
Method: as §1, §2

PIM1 = PIM1 (Homo sapiens (Human), UniProt P11309); experiment: biochemical; details: 10 μM ATP, 90 min, room temperature; read-out: PIM1 LC3K (KI)
Method: as §1, §2

Chain of PIM1 (P11309 whole entry): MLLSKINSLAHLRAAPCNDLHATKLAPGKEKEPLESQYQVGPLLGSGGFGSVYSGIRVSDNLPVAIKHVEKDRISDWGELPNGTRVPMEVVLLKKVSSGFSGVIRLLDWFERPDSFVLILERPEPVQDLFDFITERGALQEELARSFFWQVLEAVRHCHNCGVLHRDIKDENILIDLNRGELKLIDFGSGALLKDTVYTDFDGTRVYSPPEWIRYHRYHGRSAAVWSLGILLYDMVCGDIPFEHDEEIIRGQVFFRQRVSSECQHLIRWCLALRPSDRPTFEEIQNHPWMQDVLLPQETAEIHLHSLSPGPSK
Chain of PIM2 (Q9P1W9 whole entry): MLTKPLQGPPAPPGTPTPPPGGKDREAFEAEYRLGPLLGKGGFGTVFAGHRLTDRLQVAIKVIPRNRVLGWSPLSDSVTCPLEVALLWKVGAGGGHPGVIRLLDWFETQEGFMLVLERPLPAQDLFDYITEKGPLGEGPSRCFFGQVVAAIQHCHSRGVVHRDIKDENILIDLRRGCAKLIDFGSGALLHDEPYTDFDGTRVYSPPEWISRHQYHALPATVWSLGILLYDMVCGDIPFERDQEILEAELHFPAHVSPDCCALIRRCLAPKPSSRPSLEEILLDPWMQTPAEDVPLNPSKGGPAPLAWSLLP

| Structure (SMILES) | Ki (PIM2) [nM] | Ki (PIM3) [nM] | Ki (PIM1) [nM] |
| --- | --- | --- | --- |
| CCn1cc(-c2cc3c(cn2)cnn3-c2cccc(N3CCC[C@@H](N)C3)n2)cn1 [Compound 134, (R)-1-(6-(6-(1-ethyl-1H-pyrazol-4-yl)-1H-pyrazolo[4,3-c]pyridin-1-yl)pyridin-2-yl)piperidin-3-amine] | 10.8 | 0.473 | 0.951 |
| CCn1cc(-c2cc3c(cn2)cnn3-c2cccc(N3CCCC(N)CC3)n2)cn1 (stereo not drawn) [Compound 140, 1-(6-(6-(1-ethyl-1H-pyrazol-4-yl)-1H-pyrazolo[4,3-c]pyridin-1-yl)pyridin-2-yl)azepan-4-amine] | 13.4 | 0.454 | 1.04 |
| CC[C@@H]1CN(c2cccc(-n3ncc4cnc(-c5cnn(CC)c5)cc43)n2)CCN1 [Compound 142, (R)-6-(1-ethyl-1H-pyrazol-4-yl)-1-(6-(3-ethylpiperazin-1-yl)pyridin-2-yl)-1H-pyrazolo[4,3-c]pyridine] | 15 | 0.458 | 0.802 |
| CCn1cc(-c2cc3c(cn2)cnn3-c2cccc(NC3CCCCNC3)n2)cn1 (stereo not drawn) [Compound 143, N-(6-(6-(1-ethyl-1H-pyrazol-4-yl)-1H-pyrazolo[4,3-c]pyridin-1-yl)pyridin-2-yl)azepan-3-amine] | 31.1 | 1.62 | 2.46 |
| Cn1ncc(-c2cc3c(cn2)cnn3-c2cccc(N3CCCNCC3)n2)cc1=O [Compound 148, 5-(1-(6-(1,4-diazepan-1-yl)pyridin-2-yl)-1H-pyrazolo[4,3-c]pyridin-6-yl)-2-methylpyridazin-3(2H)-one] | 4100 | 45.2 | 128 |
| c1cc(N2CCCNCC2)nc(-n2ncc3cnc(-c4cnn(CC5COC5)c4)cc32)c1 [Compound 158, 1-(6-(1,4-Diazepan-1-yl)pyridin-2-yl)-6-(1-(oxetan-3-ylmethyl)-1H-pyrazol-4-yl)-1H-pyrazolo[4,3-c]pyridine] | 2900 | 284 | 287 |
| NC(=O)Cn1cc(-c2cc3c(cn2)cnn3-c2cccc(N3CCCNCC3)n2)cn1 [Compound 159, 2-(4-(1-(6-(1,4-Diazepan-1-yl)pyridin-2-yl)-1H-pyrazolo[4,3-c]pyridin-6-yl)-1H-pyrazol-1-yl)acetamide] | 8.33 | 0.185 | 0.283 |
| Cc1cncc(-c2cc3c(cn2)cnn3-c2cccc(C3=CCNCC3)n2)n1 [Compound 160, 6-(6-methylpyrazin-2-yl)-1-[6-(1 2 3 6-tetrahydropyridin-4-yl)-2-pyridyl]pyrazolo[4,3-c]pyridine] | 8.31 | 1.06 | 1.17 |
| c1cc(N2CCCNCC2)nc(-n2ncc3cnc(-c4cnn(CC5CC5)c4)cc32)c1 [Compound 161, 1-(6-(1,4-Diazepan-1-yl)pyridin-2-yl)-6-(1-(cyclopropylmethyl)-1H-pyrazol-4-yl)-1H-pyrazolo[4,3-c]pyridine] | 18.8 | 2.19 | 1.86 |
| CCn1cc(-c2cc3c(cn2)cnn3-c2cncc(N3CCCNCC3)n2)cn1 [Compound 163, 1-(6-(1,4-diazepan-1-yl)pyrazin-2-yl)-6-(1-ethyl-1H-pyrazol-4-yl)-1H-pyrazolo[4,3-c]pyridine] | 26.6 | 2.96 | 1.63 |
| Cc1cnc(O)c(-c2cc3c(cn2)cnn3-c2cncc(N3CCCNCC3)n2)c1 [Compound 164, 3-(1-(6-(1,4-diazepan-1-yl)pyrazin-2-yl)-1H-pyrazolo[4,3-c]pyridin-6-yl)-5-methylpyridin-2-ol] | 527 | 14.8 | 50.2 |
| FC(F)n1cc(-c2cc3c(cn2)cnn3-c2cccc(N3CCCNCC3)n2)cn1 [Compound 173, 1-(6-(1,4-Diazepan-1-yl)pyridin-2-yl)-6-(1-(difluoromethyl)-1H-pyrazol-4-yl)-1H-pyrazolo[4,3-c]pyridine] | 9.54 | 1.09 | 1.21 |
| c1cc(N2CCCNCC2)nc(-n2ncc3cnc(-c4cncnc4)cc32)c1 [Compound 175, 1-(6-(1,4-Diazepan-1-yl)pyridin-2-yl)-6-(pyrimidin-5-yl)-1H-pyrazolo[4,3-c]pyridine] | 196 | 6.72 | 11.3 |
| Cc1cncc(-c2cc3c(cn2)cnn3-c2ccc(C(F)(F)F)c(N3CCNCC(O)C3)n2)n1 (stereo not drawn) [Compound 219, 1-(6-(6-(6-methylpyrazin-2-yl)-1H-pyrazolo[4,3-c]pyridin-1-yl)-3-(trifluoromethyl)pyridin-2-yl)-1,4-diazepan-6-ol] | 12.5 | 0.265 | 0.433 |

Now from value to molecule:

| Ki (PIM2) [nM] | Ki (PIM3) [nM] | Ki (PIM1) [nM] | Structure (SMILES) |
| --- | --- | --- | --- |
| 11.1 | 0.84 | 2.12 | CCn1cc(-c2cc3c(cn2)cnn3-c2cccc(N3CC[C@H](N)C3)n2)cn1 [Compound 135, (S)-1-(6-(6-(1-ethyl-1H-pyrazol-4-yl)-1H-pyrazolo[4,3-c]pyridin-1-yl)pyridin-2-yl)pyrrolidin-3-amine] |
| 17.3 | 0.615 | 2.05 | CCn1cc(-c2cc3c(cn2)cnn3-c2cccc(N3CC[C@@H](N)C3)n2)cn1 [Compound 136, (R)-1-(6-(6-(1-ethyl-1H-pyrazol-4-yl)-1H-pyrazolo[4,3-c]pyridin-1-yl)pyridin-2-yl)pyrrolidin-3-amine] |
| 91.2 | 8.02 | 20.5 | CC(C)(C)c1cncc(-c2cc3c(cn2)cnn3-c2cccc(N3CCNCC3)n2)n1 [Compound 170, 6-(6-tert-butylpyrazin-2-yl)-1-(6-piperazin-1-yl-2-pyridyl)pyrazolo[4,3-c]pyridine] |
| 16.1 | 0.363 | 1.04 | N#Cc1cncc(-c2cc3c(cn2)cnn3-c2cccc(N3CCNCC3)n2)n1 [Compound 177, 6-[1-(6-piperazin-1-yl-2-pyridyl)pyrazolo[4,3-c]pyridin-6-yl]pyrazine-2-carbonitrile] |
| 13.7 | 0.655 | 0.716 | Cc1cncc(-c2cc3c(cn2)cnn3-c2cccc(N3CCC4(CCNCC4)C3)n2)n1 [Compound 199, 2-[6-[6-(6-methylpyrazin-2-yl)pyrazolo[4,3-c]pyridin-1-yl]-2-pyridyl]-2 8-diazaspiro[4.5]decane] |
| 17 | 0.451 | 1.21 | Cc1cncc(-c2cc3c(cn2)cnn3-c2cccc(N3CCC4(CCNC4)CC3)n2)n1 [Compound 200, 8-[6-[6-(6-methylpyrazin-2-yl)pyrazolo[4,3-c]pyridin-1-yl]-2-pyridyl]-2 8-diazaspiro[4.5]decane] |
| 421 | 36.4 | 56.4 | Cc1cncc(-c2cc3c(cn2)cnn3-c2cccc(N3C[C@@H](N)CCC3=O)n2)n1 [Compound 202, (5S)-5-amino-1-[6-[6-(6-methylpyrazin-2-yl)pyrazolo[4,3-c]pyridin-1-yl]-2-pyridyl]piperidin-2-one] |
| 40.4 | 2.3 | 3.74 | Cc1cncc(-c2cc3c(cn2)cnn3-c2cccc(N3CCNCCC3=O)n2)n1 [Compound 206, 4-[6-[6-(6-methylpyrazin-2-yl)pyrazolo[4,3-c]pyridin-1-yl]-2-pyridyl]-1 4-diazepan-5-one] |
| 15.1 | 0.258 | 1.17 | Cc1cncc(-c2cc3c(cn2)cnn3-c2cccc(N3CC4(CCNC4)C3)n2)n1 [Compound 217, 1-[6-(2 7-diazaspiro[3.4]octan-2-yl)-2-pyridyl]-6-(6-methylpyrazin-2-yl)pyrazolo[4,3-c]pyridine] |
